Data reported in BindingDB's records for doi:10.1021/np4008798 (The Chinese University of Hong Kong, 2014).

Assay: Inhibition of tyrosinase in mouse Melan-a cells assessed as decrease in L-DOPA Vmax at 60 uM by Lineweaver-Burk plot

In the case of `OC[C@H]1O[C@@H](Oc2c(O)cc(O)cc2/C=C/c2ccc(O)cc2)[C@H](O)[C@@H](O)[C@@H]1O`, the Ki is reported as 3.1 mM.
